In patent publication US20150216937A1, “METHODS FOR TREATING NEOPLASIA” (Altor BioScience Corporation, priority 2012, published 2015):
Read-outs that look alike come from different tables or passages of the source.

How the values were obtained:
[1] = system: HLA-A2+ p53+ UMUC-14 cells; test: In vitro 24-hour incubation of UMUC-14 cells with chemotherapeutic agents; format: cell-based, human; conditions: G0/G1 cell cycle arrest
Experimental: The anti-tumor efficacy of multi-dose administration of […] (ALT-801), alone and in combination with gemcitabine and cisplatin, was evaluated on primary tumor growth in athymic nude mice bearing human bladder UMUC-14 and KU7P cells. Treatment with a gemcitabine and cisplatin regimen is the standard-of-care for patients with metastatic bladder cancer. To assess the in vitro effects of these chemotherapeutic agents on human bladder cancer cells, HLA-A2^+ p53^+ UMUC-14 cells were treated with gemcitabine and cisplatin, alone and in combination.

KU7P cells = test: WST-1 cell proliferation assay, KU7P; format: cell-based, human; conditions: WST-1 reagent, 24 hours, read-out: IC50, inhibition of KU7P cell growth
Experimental: (§1) The sensitivity of the human bladder tumor cell lines to gemcitabine and cisplatin was further assessed using a cell proliferation assay. UMUC-14 and KU7P cells were plated in media containing various amounts of gemcitabine and cisplatin and cell proliferation was determined using the WST-1 reagent 24 hours later.

UMUC-14 cells = test: WST-1 cell proliferation assay, UMUC-14; format: cell-based, human; conditions: WST-1 reagent, 24 hours, read-out: IC50, inhibition of UMUC-14 cell growth
Experimental: as §1

[2] = system: subcutaneous MB49G tumors; test: Gemcitabine resistant subcutaneous MB49G tumor model; format: in vivo, mice; conditions: ALT-801 0.8 mg/kg (sub-optimal dose), gemcitabine 40 mg/kg
Description: As potent suppressors of various immune cell functions, MDSCs are potential therapeutic targets for anticancer treatment. For example, gemcitabine, a widely-used chemotherapeutic, can selectively eliminate MDSCs in tumor-bearing animals and enhance tumor-suppressive immune activity (Suzuki et al., Clin Cancer Res, 11: 6713-6721, 2005).

Gr1+CD11b+ MDSCs = test: Spleen Gr1+CD11b+ MDSCs after gemcitabine; format: in vivo, C57BL/6 mice; conditions: 40 mg/kg i.v., three days after; untreated tumor-bearing 4.29 (±1.32), normal 1.19 (±0.25)
Experimental: Gemcitabine is one of the drugs in the standard combination chemotherapy for muscle invasive bladder cancer. It has been reported that gemcitabine reduces myeloid-derived suppressor cells (MDSCs) in tumor-bearing mice. In this report, we studied the effect of gemcitabine on MDSCs induced by MB49luc cells in mice. MB49luc tumor-bearing mice were treated intravenously with gemcitabine at 40 mg/kg. Three days after gemcitabine treatment, splenocytes were isolated and the percentage of Gr1^+CD11b^+ MDSCs was determined by flow cytometry. The MDSCs accounted for 1.19 (±0.25) percent of the splenocytes in normal control mice without MB49luc tumors. These MDSCs increased to 4.29 (±1.32) percent of splenocytes in MB49luc tumor-bearing mice.

[3] = system: subcutaneous KU7P human bladder tumors; test: Subcutaneous KU7P xenograft, monotherapy; format: in vivo, nude mice; conditions: Gem 40 mg/kg, MART-1scTCR/IL-2 2.19 mg/kg, ALT-801 1.6 mg/kg
MB49luc cells = test: Effect of IFN-γ on MB49luc cells, Annexin V flow cytometry; format: cell-based, mouse; conditions: 1 or 10 ng/mL
Experimental: In the second part of this study, the effect of IFN-γ on MB49luc cell growth was investigated. MB49luc cells (2×10^5/well) were cultured in RPMI-10 with IFN-γ at 1 or 10 ng/mL. The IFN-γ-treated MB49luc cells were harvested and stained with FITC-labeled Annexin V. The Annexin V positive apoptotic MB49luc cells were determined by flow cytometry.

| Compound | UMUC-14 cell proliferation [1] | IC50 (KU7P cells) | IC50 (UMUC-14 cells) | IC50 (KU7P cells; Homo sapiens) | tumor growth / progression compared to PBS treated mice [2] | spleen Gr1+CD11b+ MDSCs as percent of splenocytes (Gr1+CD11b+ MDSCs) | IC50 (UMUC-14 cells; Homo sapiens, UMUC14) | growth of subcutaneous KU7P tumors compared to PBS treated mice [3] | cytotoxicity against MB49luc cells (Annexin V positive apoptotic cells) (MB49luc cells) |
| --- | --- | --- | --- | --- | --- | --- | --- | --- | --- |
| N.N.[Cl][Pt][Cl] [cisplatin] | dose dependent decrease | 1.4 µM | 9.2 µM | – | – | – | – | – | – |
| Nc1ccn([C@@H]2O[C@H](CO)[C@@H](O)C2(F)F)c(=O)n1 [gemcitabine] | dose dependent decrease | – | – | 0.05 µM | did not significant differ | 1.83 (±0.92) percent | 2030 µM | statistically significant decrease | – |
| IFN-γ: cytokine added to MB49luc cell cultures | – | – | – | – | – | – | – | – | does not directly result in detectable cytotoxicity |
